Measurements from patent US20230159445A1, “STAT INHIBITORY COMPOUNDS AND COMPOSITIONS” (JANPIX LIMITED, priority 2020, published 2023).
pIC50: −log10 of the molar value.

Columns and labels:
[1] = system: MV4-11 cells; experiment: MV4-11 Cell Cytotoxicity Assay (CellTiter-Blue, 72 h); type: cell-based, human; conditions: Homo sapiens, MV4-11; MV-4-11 cells
Procedure, shortened: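 Cells seeded 24 h before treatment, then exposed 72 h at 37° C, 5% CO2 to inhibitors in triplicate, top concentration 50 μM with 1:2 serial dilutions (0.5% DMSO vehicle). Viability read by CellTiter-Blue fluorescence at 560/590 nm after 1 h.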

[2] = system: normal human fibroblast (NHF) cells; experiment: NHF Cell Cytotoxicity Assay (CellTiter-Blue, 72 h), off-target effects; type: cell-based; conditions: Homo sapiens, Fibroblast; pooled NHF cells
Procedure, shortened: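 Normal human fibroblasts (1×10^4/well, 10% FBS medium) were treated after 24 h with inhibitor at 0.097656-50 μM for 72 h at 37° C. Viability was read by CellTiter-Blue fluorescence (560/590 nm), normalized to DMSO control, and IC50 obtained from a variable-slope log(inhibitor)-response fit of four replicates.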

[3] = system: glutathione (GSH); experiment: Reactivity Profiling with Glutathione (GSH), half-life by HPLC; conditions: 5 mM glutathione (GSH) in IMDM with 10% FBS

| Compound | half-life at 25 μM [3] | pIC50 [1] | pIC50 [2] |
| --- | --- | --- | --- |
| Cc1cc(C(=O)O)ccc1N(Cc1cc(C2CC2)cc(C2CC2)c1)C(=O)CN(Cc1c(F)cc(F)cc1F)S(=O)(=O)c1c(F)c(F)c(F)c(F)c1F [Compound 1218, 4-(N-(3,5-dicyclopropylbenzyl)-2-(N-(2,4,6-trifluorobenzyl)-(2,3,4,5,6-pentafluoro-phenyl)sulfonamido)acetamido)-3-methylbenzoic acid] | 0.00167 to 2.37 h | 6.50 to 11.00 | 5.00 to 9.00 |
| Cc1cc(C(=O)O)ccc1N(Cc1cc(C2CC2)cc(C2CC2)c1)C(=O)CN(Cc1ccc(F)cc1Cl)S(=O)(=O)c1c(F)c(F)c(F)c(F)c1F [Compound 1219, 4-(2-(N-(2-chloro-4-fluorobenzyl)-(2,3,4,5,6-pentafluorophenyl)sulfon-amido)-N-(3,5-dicyclopropylbenzyl)acetamido)-3-methylbenzoic acid] | 2.37 to 4.12 h | 6.50 to 11.00 | 5.00 to 9.00 |
| O=C(O)c1ccc(N(Cc2cc(C3CC3)cc(C3CC3)c2)C(=O)CN(Cc2ccc(F)cc2Cl)S(=O)(=O)c2c(F)c(F)c(F)c(F)c2F)c(OC2CCOC2)c1 (stereo not drawn) [Compound 1220, 4-(2-(N-(2-chloro-4-fluorobenzyl)-(2,3,4,5,6-pentafluorophenyl)sulfon-amido)-N-(3,5-dicyclopropylbenzyl)acetamido)-3-((tetrahydrofuran-3-yl)oxy)benzoic acid] | 2.37 to 4.12 h | 6.50 to 11.00 | 5.00 to 9.00 |
| O=C(O)c1ccc(N(Cc2cc(C3CC3)cc(C(F)(F)F)c2)C(=O)CN(Cc2ccccc2C(F)(F)F)S(=O)(=O)c2c(F)c(F)c(F)c(F)c2F)c(OC2CC2)c1 [Compound 1221, 3-cyclopropoxy-4-(N-(3-cyclopropyl-5-(trifluoromethyl)benzyl)-2-(N-(2-(trifluoromethyl)benzyl)-(2,3,4,5,6-pentafluoro-phenyl)sulfonamido)acetamido)benzoic acid] | 9.23 to 1670 h | 6.00 to 6.50 | 4.52 to 4.70 |
| O=C(O)c1ccc(N(Cc2cc(C3CC3)cc(C(F)(F)F)c2)C(=O)CN(Cc2ccc(F)cc2Cl)S(=O)(=O)c2c(F)c(F)c(F)c(F)c2F)c(OC2CC2)c1 [Compound 1222, 4-(2-(N-(2-chloro-4-fluorobenzyl)-(2,3,4,5,6-pentafluorophenyl)sulfon-amido)-N-(3-cyclopropyl-5-(trifluoromethyl)benzyl)acetamido)-3-cyclopropoxybenzoic acid] | 4.12 to 9.23 h | 6.50 to 11.00 | 4.70 to 5.00 |
| CC(C)(C)c1cc(CN(C(=O)CN(Cc2ccc(F)cc2Cl)S(=O)(=O)c2c(F)c(F)c(F)c(F)c2F)c2ccc(C(=O)O)cc2OC2CCOC2)cc(C2CC2)c1 (stereo not drawn) [Compound 1226, 4-(N-(3-(tert-butyl)-5-cyclopropylbenzyl)-2-(N-(2-chloro-4-fluorobenzyl)-(2,3,4,5,6-pentafluorophenyl)sulfon-amido)acetamido)-3-((tetrahydrofuran-3-yl)oxy)benzoic acid] | 2.37 to 4.12 h | 6.50 to 11.00 | 5.00 to 9.00 |
| CCOc1cc(C(=O)O)ccc1N(Cc1cc(C2CC2)cc(C(C)(C)C)c1)C(=O)CN(Cc1ccc(F)cc1Cl)S(=O)(=O)c1c(F)c(F)c(F)c(F)c1F [Compound 1227, 4-(N-(3-(tert-butyl)-5-cyclopropylbenzyl)-2-(N-(2-chloro-4-fluorobenzyl)-(2,3,4,5,6-pentafluorophenyl)sulfon-amido)acetamido)-3-ethoxybenzoic acid] | 4.12 to 9.23 h | 6.50 to 11.00 | 4.70 to 5.00 |
| CC(C)Oc1cc(C(=O)O)ccc1N(Cc1cc(C2CC2)cc(C(C)(C)C)c1)C(=O)CN(Cc1ccc(F)cc1Cl)S(=O)(=O)c1c(F)c(F)c(F)c(F)c1F [Compound 1228, 4-(N-(3-(tert-butyl)-5-cyclopropylbenzyl)-2-(N-(2-chloro-4-fluorobenzyl)-(2,3,4,5,6-pentafluorophenyl)sulfon-amido)acetamido)-3-isopropoxybenzoic acid] | 9.23 to 1670 h | 6.50 to 11.00 | 4.52 to 4.70 |
| O=C(O)c1ccc(N(Cc2cc(C3CC3)cc(C3CC3)c2)C(=O)CN(Cc2ccc(F)cc2Cl)S(=O)(=O)c2c(F)c(F)c(F)c(F)c2F)c(OC(F)(F)F)c1 [Compound 1231, 4-(2-(N-(2-chloro-4-fluorobenzyl)-(2,3,4,5,6-pentafluorophenyl)sulfon-amido)-N-(3,5-dicyclopropylbenzyl)acetamido)-3-(trifluoromethoxy) benzoic acid] | 4.12 to 9.23 h | 6.50 to 11.00 | 4.70 to 5.00 |
| CC(C)Oc1cc(CN(C(=O)CN(Cc2ccc(F)cc2Cl)S(=O)(=O)c2c(F)c(F)c(F)c(F)c2F)c2ccc(C(=O)O)cc2OC2CC2)cc(C2CC2)c1 [Compound 1232, 4-(2-(N-(2-chloro-4-fluorobenzyl)-(2,3,4,5,6-pentafluorophenyl)sulfon-amido)-N-(3-cyclopropyl-5-isopropoxybenzyl)acetamido)-3-cyclopropoxybenzoic acid] | 4.12 to 9.23 h | 6.50 to 11.00 | 4.70 to 5.00 |
| CC(C)(C)c1cc(CN(C(=O)CN(Cc2c(F)cccc2Cl)S(=O)(=O)c2c(F)c(F)c(F)c(F)c2F)c2ccc(C(=O)O)cc2OC2CC2)cc(C2CC2)c1 [Compound 1238, 4-(N-(3-(tert-butyl)-5-cyclopropylbenzyl)-2-(N-(2-chloro-6-fluorobenzyl)-(2,3,4,5,6-pentafluorophenyl)sulfon-amido)acetamido)-3-cyclopropoxybenzoic acid] | 9.23 to 1670 h | 6.50 to 11.00 | 4.70 to 5.00 |
| O=C(O)c1ccc(N(Cc2cc(C3CC3)cc(C3CC3)c2)C(=O)CN(Cc2ccc(F)cc2Cl)S(=O)(=O)c2c(F)c(F)c(F)c(F)c2F)c(N2CCOCC2)c1 [Compound 1241, 4-(2-(N-(2-chloro-4-fluorobenzyl)-(2,3,4,5,6-pentafluorophenyl)sulfon-amido)-N-(3,5-dicyclopropylbenzyl)acetamido)-3-morpholinobenzoic acid] | 4.12 to 9.23 h | 6.50 to 11.00 | 5.00 to 9.00 |
| O=C(O)c1ccc(N(Cc2cc(C3CC3)cc(C3CC3)c2)C(=O)CN(CCc2ccc(F)cc2Cl)S(=O)(=O)c2c(F)c(F)c(F)c(F)c2F)c(OC2CC2)c1 [Compound 1242, 4-(2-(N-(2-chloro-4-fluorophenethyl)-(2,3,4,5,6-pentafluorophenyl)sulfon-amido)-N-(3,5-dicyclopropylbenzyl)acetamido)-3-cyclopropoxybenzoic acid] | 0.00167 to 2.37 h | 6.00 to 6.50 | 4.70 to 5.00 |
| CCCCOc1cc(C(=O)O)ccc1N(Cc1cc(C2CC2)cc(C2CC2)c1)C(=O)CN(Cc1ccc(F)cc1Cl)S(=O)(=O)c1c(F)c(F)c(F)c(F)c1F [Compound 1254, 3-butoxy-4-(2-(N-(2-chloro-4-fluorobenzyl)-(2,3,4,5,6-pentafluorophenyl)sulfon-amido)-N-(3,5-dicyclopropylbenzyl)acetamido)benzoic acid] | 9.23 to 1670 h | 6.50 to 11.00 | 4.52 to 4.70 |

The next lines start with results.

| half-life at 25 μM [3] | Compound | pIC50 [1] | pIC50 [2] |
| --- | --- | --- | --- |
| 2.37 to 4.12 h | COCCOc1cc(C(=O)O)ccc1N(Cc1cc(C2CC2)cc(C(C)(C)C)c1)C(=O)CN(Cc1ccc(F)cc1Cl)S(=O)(=O)c1c(F)c(F)c(F)c(F)c1F [Compound 1246, 4-(N-(3-(tert-butyl)-5-cyclopropylbenzyl)-2-(N-(2-chloro-4-fluorobenzyl)-(2,3,4,5,6-pentafluorophenyl)sulfon-amido)acetamido)-3-(2-methoxyethoxy)benzoic acid] | 6.50 to 11.00 | 4.70 to 5.00 |
| 0.00167 to 2.37 h | Cc1cc(C(=O)O)ccc1N(Cc1cc(C2CC2)cc(C(C)(C)C)c1)C(=O)CN(Cc1cnccc1C(F)(F)F)S(=O)(=O)c1c(F)c(F)c(F)c(F)c1F [Compound 1251, 4-(N-(3-(tert-butyl)-5-cyclopropylbenzyl)-2-(N-((4-(trifluoromethyl)pyridin-3-yl)methyl)-(2,3,4,5,6-pentafluoro-phenyl)sulfonamido)acetamido)-3-methylbenzoic acid] | 6.50 to 11.00 | 5.00 to 9.00 |
| 2.37 to 4.12 h | CCOc1cc(C(=O)O)ccc1N(Cc1cc(C2CC2)cc(C2CC2)c1)C(=O)CN(Cc1ccc(F)cc1Cl)S(=O)(=O)c1c(F)c(F)c(F)c(F)c1F [Compound 1252, 4-(2-(N-(2-chloro-4-fluorobenzyl)-(2,3,4,5,6-pentafluorophenyl)sulfon-amido)-N-(3,5-dicyclopropylbenzyl)acetamido)-3-ethoxybenzoic acid] | 6.50 to 11.00 | 5.00 to 9.00 |
| 0.00167 to 2.37 h | C#CCOc1cc(C(=O)O)ccc1N(Cc1cc(C2CC2)cc(C2CC2)c1)C(=O)CN(Cc1ccc(F)cc1Cl)S(=O)(=O)c1c(F)c(F)c(F)c(F)c1F [Compound 1258, 4-(2-(N-(2-chloro-4-fluorobenzyl)-(2,3,4,5,6-pentafluorophenyl)sulfon-amido)-N-(3,5-dicyclopropylbenzyl)acetamido)-3-(prop-2-yn-1-yloxy)benzoic acid] | 6.50 to 11.00 | 4.70 to 5.00 |
| 2.37 to 4.12 h | CCOc1cc(C(=O)O)ccc1N(Cc1cc(C2CC2)cc(C(C)(C)C)c1)C(=O)CN(Cc1ccccc1C#N)S(=O)(=O)c1c(F)c(F)c(F)c(F)c1F [Compound 1272, 4-(N-(3-(tert-butyl)-5-cyclopropylbenzyl)-2-((N-(2-cyanobenzyl)-2,3,4,5,6-pentafluorophenyl)sulfonamido)acetamido)-3-ethoxybenzoic acid] | 6.50 to 11.00 | 4.70 to 5.00 |
| 0.00167 to 2.37 h | CCOc1cc(C(=O)O)ccc1N(Cc1cc(C2CC2)cc(C2CC2)c1)C(=O)CN(Cc1ccccc1C#N)S(=O)(=O)c1c(F)c(F)c(F)c(F)c1F [Compound 1273, 4-(2-((N-(2-cyanobenzyl)-2,3,4,5,6-pentafluorophenyl)sulfonamido)-N-(3,5-dicyclopropylbenzyl)acetamido)-3-ethoxybenzoic acid] | 6.50 to 11.00 | 4.70 to 5.00 |
